Results as given in US4914086A, “Method for treating African human and veterinary trypanosomiases” (priority 1987, dated 1990).
“Also recorded” adds a separate entry of the source.

Experiments:
T. b. brucei EATRO 110 = assay: Drug screen, acute EATRO 110 mouse infection (Tables 1, 3); format: in vivo, Trypanosoma brucei brucei (in Swiss-Webster mice)
Description: (§1) T. b. brucei EATRO 110 isolate was maintained as described (Bacchi, C. J., H. C. Nathan, S. H. Hutner, P. P. McCann and A. Sjoerdsma; Polyamine metabolism: a potential chemotherapeutic target in trypanosomes. Science 210: 332-334, 1980). It produces an acute, rapidly fatal parasitemia which is lethal to mice 3-5 days after inoculation. Two T. B. brucei strains, TREU 667 and LUMP 1001 developed by Jennings and coworkers (Jennings, F. W., D. D. Whitelaw and G. M. Urquhart; The relationship between duration of infection with Trypanosoma brucei in mice and the efficacy of chemotherapy. Parasitology 75: 143-153, 1977/Jennings, F. W. and G. D. Gray; Relapsed parasitemia following chemotherapy of chronic T. brucei infections in mice and its relation to cerebral trypanosomes; Contr. Microbiol. Immunol. 7 147-154, 1983) were used as CNS models. Both produce infections which are refractory to Berenil® (diminazene aceturate) and develop within 21 days after inoculation. They are not usually fatal until >40 days after inoculation. LUMP 1001 causes a more virulent CNS infection than TREU 667, and is regarded as more difficult to cure (Jennings, F. W. and G. D. Gray. Relapsed parasitemia following chemotherapy of chronic T. brucei infections in mice and its relation to cerebral trypanosomes. Contr. Microbiol. Immunol. 7 147-154, 1983).
Swiss-Webster (25-30 g) mice were used throughout. In the EATRO 110 model, groups of 100 mice were infected (10^5 trypanosomes/mouse) and the infection was allowed to develop 24 hours before commencing therapy. Animals were divided into groups of 5 before treatment. Cured animals survived >30 days beyond deaths of controls. All compounds were administered by i.p. injection.
Other methods as in Table 1.

T. b. brucei TREU 667 = assay: CNS model, T. b. brucei TREU 667 infection in mice (Table 4); format: in vivo, Trypanosoma brucei brucei (in Swiss-Webster mice); details: for efficacy in CNS model in words: TREU 667
Description: as §1
The models for […] nervous system infections used TREU 667 and LUMP 1001 strains which were stored frozen and passaged once in rats before infection of mice. Maintenance and use of these screens were as described (Clarkson, A. B. Jr., C. J. Bacchi, G. H. Mellon, H. C. Nathan, P. P. McCann and A. Sjoerdsma. Efficacy of DFMO+blemoycin in a mouse model of central nervous system African trypanosomiasis. Proc. Natl. Acad. Sci. USA. 80: 5729-5733, 1983/Clarkson, A. B. Jr., E. J. Biene, C. J. Bacchi, P. P. McCann, S. H. Hutner and A. Sjoerdsma. New drug combination for experimental late stage African trypanosomiasis: DFMO with suramin. Am. J. Trop. Med. Hyg. 33: 1073-1077, 1984/Dube, D. K., G. Mpimbaza, A. C. Allison, E. Lederer and L. Rovis. Antitrypanosomal activity of sinefungin, Am. J. Trop. Med. Hyg. 32: 31-33, 1983/Fish, W. R., J. J. Marr, R. L. Berens, D. L. Looker, D. J. Nelson, S. LaFon and A. E. Balber. Inosine analogs as chemotherapeutic agents for African trypanosomes: metabolism in trypanosomes and efficacy in tissue culture. Anti-microb. Ag. Chemother. 27: 33-36, 1985/Clazer, R. I., and L. S. Lloyd. Effects of 8-azaadenosine and formycin on cell lethality and the synthesis and methylation of nucleic acids in human colon carcinoma cells in culture. Biochem. Pharmacol. 31: 3207-3214, 1982/Bacchi, C. J., H. C. Nathan, A. B. Clarkson, Jr., E. J. Bienen, A. J. Bitonti, P. P. McCann and A. Sjoerdsma. Activity of the ornithine decarboxylase inhibitors DL-α-difluoromethylornithine and monofluormethyldehydroornithine methylester alone and in combination with suramin against Trypanosoma brucei brucei central nervous system models, Am. J. Trop. Med. Hyg. (in press)). Briefly, groups of 100-120 mice were infected and the infections allowed to develop until day 21, when the animals were separated into groups of 10 and therapy commenced. Controls were treated with Berenil (40 mg/kg) on day 21. These always relapsed 40-70 days after treatment. Parasitemia was followed by examining tail vein blood smears once weekly. Animals which had relapsed were removed from cages. TREU 667 infections were followed >225 days after inoculation and LUMP 1001 were followed >280 days, as determined by the relapse pattern in previous work (Bacchi, C. J., H. C. Nathan, A. B. Clarkson, Jr., E. J. Bienen, A. J. Bitonti, P. P. McCann and A. Sjoerdsma. Activity of the ornithine decarboxylase inhibitors DL-α-difluoromethylornithine and monofluormethyldehydroornithine methylester alone and in combination with suramin against Trypanosoma brucei brucei central nervous system models. Am. J. Trop. Med. Hyg. (in press)). […]

[1] = tested on: Trypanosoma brucei rhodesiense; details: bone marrow tissue culture system; cited from earlier work
T. b. rhodesiense = details: cited from earlier work
[2] = Table 1, 5 mg/kg i.p. (9-DINO, sinefungin once daily for 3 days)
[3] = Table 1, 10 mg/kg i.p. (9-DINO, sinefungin once daily for 3 days)
[4] = Table 1, 25 mg/kg i.p. (9-DINO, sinefungin once daily for 3 days)
[5] = Table 1, 50 mg/kg i.p. (9-DINO, sinefungin once daily for 3 days)
[6] = Table 1, 100 mg/kg i.p. (9-DINO, sinefungin once daily for 3 days)
[7] = Table 1, 200 mg/kg i.p. once daily for 3 days
[8] = Table 1, 400 mg/kg i.p. once daily for 3 days
[9] = Table 3, 5 mg/kg i.p. once daily for 3 days
[10] = Table 3, 10 mg/kg i.p. once daily for 3 days
[11] = Table 3, 25 mg/kg i.p. once daily for 3 days
[12] = Table 1, 0.5 mg/kg i.p. once daily for 3 days
[13] = Table 1, 1 mg/kg i.p. once daily for 3 days
[14] = Table 1, 2.5 mg/kg i.p. (9-DINO, sinefungin once daily for 3 days)
[15] = Table 3, 0.5 mg/kg i.p. once daily for 3 days
[16] = Table 3, 1.0 mg/kg i.p. once daily for 3 days

SMILES: O=c1[nH]cnc2c([C@@H]3O[C@H](CO)[C@@H](O)[C@H]3O)c[nH]c12 [9-DINO, 7-beta-D-ribofuranosyl-4-oxo-3H, 5H-pyrrolo (3,2-d) pyrimidine]
- cure rate (T. b. brucei EATRO 110; 50-100 mg/kg, EATRO 110): 100%
- curative / active dose range (T. b. brucei EATRO 110; EATRO 110, text): 25 to 200 mg/kg
- # Cured/Total (T. b. brucei EATRO 110; [2]): 0/5
- % Cured (T. b. brucei EATRO 110; [2]): 0%
- # Cured/Total (T. b. brucei EATRO 110; [3]): 2/30
- % Cured (T. b. brucei EATRO 110; [3]): 7%
- # Cured/Total (T. b. brucei EATRO 110; [4]): 15/20
- % Cured (T. b. brucei EATRO 110; [4]): 50%
- # Cured/Total (T. b. brucei EATRO 110; [5]): 4/5
- % Cured (T. b. brucei EATRO 110; [5]): 80%
- # Cured/Total (T. b. brucei EATRO 110; [6]): 5/5
- % Cured (T. b. brucei EATRO 110; [6]): 100%
- # Cured/Total (T. b. brucei EATRO 110; [7]): 5/5
- % Cured (T. b. brucei EATRO 110; [7]): 100%
- # Cured/Total (T. b. brucei EATRO 110; [8]): 3/5
- % Cured (T. b. brucei EATRO 110; [8]): 60%
- # Cured/Total (T. b. brucei EATRO 110; [9]): 0/5
- % Cured (T. b. brucei EATRO 110; [9]): 0%
- # Cured/Total (T. b. brucei EATRO 110; [10]): 2/30
- % Cured (T. b. brucei EATRO 110; [10]): 7%
- # Cured/Total (T. b. brucei EATRO 110; [11]): 15/20
- % Cured (T. b. brucei EATRO 110; [11]): 75%
- activity in the acute (short term) EATRO 110 model, in words (T. b. brucei EATRO 110; listed as 9-deazainosine): greatest activity; also recorded: most active analog of the two
- activity in the acute (short term) EATRO 110 model, in words (T. b. brucei EATRO 110; text summary): greatest activity; also recorded: highly effective; also recorded: active against acute models; also recorded: more effective than sinefungin, allopurinol and allopurinol riboside
- activity in the acute (short term) EATRO 110 model, in words (T. b. brucei EATRO 110; text summary, listed as 9DINO): active against an acute infection
- # Cured/Total (T. b. brucei TREU 667; 5 mg/kg i.p., 7 days): 0/5
- % Cured (T. b. brucei TREU 667; 5 mg/kg i.p., 7 days): 0%
- Avg. Day of Relapse (Range) (T. b. brucei TREU 667; 5 mg/kg i.p., 7 days): 41 days
- # Cured/Total (T. b. brucei TREU 667; 10 mg/kg i.p., 7 days): 0/5
- % Cured (T. b. brucei TREU 667; 10 mg/kg i.p., 7 days): 0%
- Avg. Day of Relapse (Range) (T. b. brucei TREU 667; 10 mg/kg i.p., 7 days): 41 days
- # Cured/Total (T. b. brucei TREU 667; 25 mg/kg i.p., 7 days): 1/5
- % Cured (T. b. brucei TREU 667; 25 mg/kg i.p., 7 days): 20%
- Avg. Day of Relapse (Range) (T. b. brucei TREU 667; 25 mg/kg i.p., 7 days): 60 (41-135) Day
- # Cured/Total (T. b. brucei TREU 667; 100 mg/kg i.p., 7 days): 0/20
- % Cured (T. b. brucei TREU 667; 100 mg/kg i.p., 7 days): 0%
- Avg. Day of Relapse (Range) (T. b. brucei TREU 667; 100 mg/kg i.p., 7 days): 49 (35-58) Day
- # Cured/Total (T. b. brucei TREU 667; 250 mg/kg i.p., 7 days): 3/10
- % Cured (T. b. brucei TREU 667; 250 mg/kg i.p., 7 days): 30%
- Avg. Day of Relapse (Range) (T. b. brucei TREU 667; 250 mg/kg i.p., 7 days): 68 (45-86) Day
- efficacy in CNS model in words (T. b. brucei TREU 667): did not cure CNS infections
- activity in words [1]: active at very low concentrations
- metabolism in words (T. b. rhodesiense): metabolized to 9-deaza-ATP

SMILES: Nc1ncnc2c1ncn2[C@@H]1O[C@H](C[C@@H](N)CC[C@H](N)C(=O)O)[C@@H](O)[C@H]1O [Sinefungin, 6,9-Diamino-1-(6-amino-9H-purin-9-yl)-1,5,6,7,8,9-hexadeoxy-beta-D-ribo-decofuranuronic acid]
- % active (T. b. brucei EATRO 110; 25 mg/kg, single dose): 80%
- # Cured/Total (T. b. brucei EATRO 110; [12]): 0/15
- % Cured (T. b. brucei EATRO 110; [12]): 0%
- # Cured/Total (T. b. brucei EATRO 110; [13]): 0/20
- % Cured (T. b. brucei EATRO 110; [13]): 0%
- # Cured/Total (T. b. brucei EATRO 110; [14]): 0/5
- % Cured (T. b. brucei EATRO 110; [14]): 0%
- # Cured/Total (T. b. brucei EATRO 110; [2]): 9/15
- % Cured (T. b. brucei EATRO 110; [2]): 60%
- # Cured/Total (T. b. brucei EATRO 110; [3]): 8/15
- % Cured (T. b. brucei EATRO 110; [3]): 53%
- # Cured/Total (T. b. brucei EATRO 110; [4]): 4/5
- % Cured (T. b. brucei EATRO 110; [4]): 80%
- # Cured/Total (T. b. brucei EATRO 110; [15]): 0/15
- % Cured (T. b. brucei EATRO 110; [15]): 0%
- # Cured/Total (T. b. brucei EATRO 110; [16]): 0/20
- % Cured (T. b. brucei EATRO 110; [16]): 0%
- # Cured/Total (T. b. brucei EATRO 110; [9]): 9/15
- % Cured (T. b. brucei EATRO 110; [9]): 60%
- # Cured/Total (T. b. brucei EATRO 110; [10]): 8/15
- % Cured (T. b. brucei EATRO 110; [10]): 53%
- # Cured/Total (T. b. brucei EATRO 110; [11]): 4/5
- % Cured (T. b. brucei EATRO 110; [11]): 80%
- % effective (T. b. brucei EATRO 110; single doses of 5 or 10 mg/kg): ~ 50%
- activity in the acute (short term) EATRO 110 model, in words (T. b. brucei EATRO 110; text summary): less active than 9-DINO and Formycin B
- # Cured/Total (T. b. brucei TREU 667; 2.5 mg/kg i.p., 4 days): 0/18
- % Cured (T. b. brucei TREU 667; 2.5 mg/kg i.p., 4 days): 0%
- Avg. Day of Relapse (Range) (T. b. brucei TREU 667; 2.5 mg/kg i.p., 4 days): 39 (35-56) Day
- # Cured/Total (T. b. brucei TREU 667; 5 mg/kg i.p., 4 days): 0/10
- % Cured (T. b. brucei TREU 667; 5 mg/kg i.p., 4 days): 0%
- Avg. Day of Relapse (Range) (T. b. brucei TREU 667; 5 mg/kg i.p., 4 days): 41 (35-46) Day
- # Cured/Total (T. b. brucei TREU 667; 10 mg/kg i.p., 3 days): 0/10
- % Cured (T. b. brucei TREU 667; 10 mg/kg i.p., 3 days): 0%
- Avg. Day of Relapse (Range) (T. b. brucei TREU 667; 10 mg/kg i.p., 3 days): 38 (35-46) Day
- # Cured/Total (T. b. brucei TREU 667; 10 mg/kg i.p., 7 days): 6/10
- % Cured (T. b. brucei TREU 667; 10 mg/kg i.p., 7 days): 60%
- Avg. Day of Relapse (Range) (T. b. brucei TREU 667; 10 mg/kg i.p., 7 days): 124 (35-209) Day
- efficacy in CNS model in words (T. b. brucei TREU 667): did not produce complete cures
